In patent US11857601B2, “Pharmaceutical composition for cancer treatment comprising fusion protein including IL-2 protein and CD80 protein and anticancer drug” (GI INNOVATION, INC., priority 2020, dated 2024):

Key:
IL-2Rα = molecular target: T1, IL-2Rα (Homo sapiens, UniProt P01589); test: Binding to IL-2Rα (Octet, AR2G biosensor); conditions: as compared with GI101w and Proleukin
T1 construct: purchased Acro ILA-H52H9
T1 sequence (P01589 22-272): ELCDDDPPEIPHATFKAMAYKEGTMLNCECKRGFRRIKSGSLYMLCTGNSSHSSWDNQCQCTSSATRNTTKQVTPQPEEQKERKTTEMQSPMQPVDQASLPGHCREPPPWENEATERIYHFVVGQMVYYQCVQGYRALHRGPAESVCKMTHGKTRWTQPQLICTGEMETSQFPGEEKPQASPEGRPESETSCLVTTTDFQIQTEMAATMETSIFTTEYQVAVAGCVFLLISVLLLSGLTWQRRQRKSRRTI
Procedure: (§1) The binding ability for IL-2Rα was measured using the AR2G biosensor, and the binding ability for IL-2Rβ was measured using the Ni-NTA biosensors (Nickel charged Tris-NTA, Ni-NTA Biosensors, ForteBio, 18-5101).
A ligand (IL-2Rα-His Tag, Acro, Cat: ILA-H52H9) to be attached to the AR2G biosensor was diluted with 10 mM acetate buffer (pH 5, AR2G reagent Kit, ForteBio, Cat: 18-5095) to a concentration of 5 μg/ml. The AR2G biosensor was activated with a buffer prepared by mixing 400 mM EDC and 100 mM sulfo-NHS, and then the diluted ligand was loaded on the AR2G biosensor for 300 seconds and fixed.
(§2) Thereafter, GI101, GI101w, or Proleukin (Novartis, hIL-2), at various concentrations, to be attached to the ligand was loaded thereon for 300 seconds. Then, binding thereof was measured and dissociation thereof was also measured for 300 seconds. Binding kinetics analysis was performed using Octet Data Analysis HT software ver. 10 provided by Pall Corporation. The results are illustrated in FIGS. 22 to 24.

IL-2Rβ = molecular target: T2, IL-2Rβ (Homo sapiens, UniProt P14784); test: Binding to IL-2Rβ (Octet, Ni-NTA biosensor); conditions: as compared with GI101w and Proleukin
T2 construct: purchased Acro CD2-H5221
T2 sequence (P14784 27-551): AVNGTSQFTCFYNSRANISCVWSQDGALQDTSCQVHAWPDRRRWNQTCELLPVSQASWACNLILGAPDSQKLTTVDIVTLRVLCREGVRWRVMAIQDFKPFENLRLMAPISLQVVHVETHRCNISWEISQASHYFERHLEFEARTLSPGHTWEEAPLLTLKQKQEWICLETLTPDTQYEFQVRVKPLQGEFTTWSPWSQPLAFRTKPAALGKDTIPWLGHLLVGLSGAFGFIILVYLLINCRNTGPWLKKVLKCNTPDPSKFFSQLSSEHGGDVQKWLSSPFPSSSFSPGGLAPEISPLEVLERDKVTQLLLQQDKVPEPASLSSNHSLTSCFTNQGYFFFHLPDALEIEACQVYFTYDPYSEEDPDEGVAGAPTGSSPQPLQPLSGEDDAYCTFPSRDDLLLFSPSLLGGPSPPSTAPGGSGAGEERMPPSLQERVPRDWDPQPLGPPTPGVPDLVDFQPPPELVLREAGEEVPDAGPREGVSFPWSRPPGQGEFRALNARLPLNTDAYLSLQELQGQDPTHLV
Procedure: as §1
Meanwhile, a ligand (IL-2Rβ-His Tag, Acro, Cat: CD2-H5221) to be attached to the Ni-NTA biosensor was diluted with 1×Ni-NTA kinetic buffer to a concentration of 5 μg/ml. The diluted ligand was loaded on the Ni-NTA biosensor for 600 seconds and fixed.
as §2

CT-26 cancer cell line = test: GI101 in mice transplanted with CT-26 (Exp. Ex. 16.1); type: in vivo, BALB/c mice
Procedure: The tumor size was measured daily.

CT26 cells = test: mGI-101 and Lenvatinib in CT26 allotransplanted tumor model; type: in vivo, BALB/c mice; conditions: end of the experiment, 10 mice per group
Procedure: (§3) CT26 cells were purchased from ATCC (USA) and cultured in RPMI1640 medium (Gibco) containing 10% FBS (Gibco) and 1% antibiotic/antifungal agent (Gibco). The cultured cells were harvested using trypsin (Gibco) and then suspended in PBS. In order to establish an allotransplanted tumor model, 1×10^6 CT26 cells were subcutaneously injected into the right flank of BALB/c female mice (7-week-old).
A certain period of time after the cell transplantation, the tumor volume was measured for animals with no abnormalities in the health condition of the animals, and the mice were assigned so that the average tumor volume of each group was less than 70-100 mm^3, each group including 10 mice.
In the case of Lenvatinib powder, the dose was calculated and weighed, and it was prepared to the dose concentration using a 0.5% methyl cellulose excipient. In order to minimize the loss of the test substance, the doses for 3 or 4 days were weighed, and prepared using the excipient on the day of administration and injected.
Clinical symptoms such as a disease and a behavioral change were observed once a day during the test period, and deceased animals were identified, and the mice were sacrificed when the tumor size reached a size of 4,000 mm^3.
The tumor volume before administration of each subject was set as the value measured at the time of grouping.
(§4) All statistical calculations were performed using Prism 8.0 (Graph Pad Software Inc, USA). The comparison of tumor volume measurements was made through two-way analysis of variance followed by Tukey's multiple comparison test. A p value of less than 0.05 was considered significant.

Renca cells = test: mGI-101 and Lenvatinib in Renca allotransplanted tumor model; type: in vivo, BALB/c mice
Procedure: as §3, with “Renca” for “CT26”, “5×10^6 Renca” for “1×10^6 CT26”, “back” for “right flank”, “(8-week-old).” for “(7-week-old).”
A certain period of time after cell inoculation of the tumor grafts of the mice, the tumor volume was measured for animals with no abnormalities in the health condition of the animals, and the mice were randomly selected and assigned, each group including 10 mice.
The death of the mouse, the type of general symptoms, the date of onset, and the severity of symptoms were observed once a day during the test period, and recorded for each subject.
The tumor volume before administration of each subject was set as the value measured at the time of grouping, and the anti-tumor efficacy was evaluated as compared with the vehicle control.
as §4

[1] = mGI-101 twice a week (BIW), Lenvatinib daily, 10 mice per group

Row | binding ability for the IL-2 receptor IL-2Rα (IL-2Rα) | binding ability for IL-2Rβ (IL-2Rβ) | Substance | tumor inhibitory effect (CT-26 cancer cell line; GI101 0.1 mg/kg, compared with anti-PD-1 antibody group (p<0.05)) | Tumor growth inhibition (CT-26 cancer cell line; GI101 0.1 or 1 mg/kg, anti-PD-1 5 mg/kg, anti-CTLA-4 5 mg/kg i.v., vs negative control) | number of mice with tumor growth inhibition rate of 30% or more (CT26 cells) [mice] | number of mice with tumor growth inhibition rate of 50% or more (CT26 cells) [mice] | number of mice with tumor growth inhibition rate of 80% or more (CT26 cells) [mice] | number of mice with tumor growth inhibition rate of 30% or more (Renca cells; mGI-101 alone once a week) [mice] | number of mice with tumor growth inhibition rate of 50% or more (Renca cells; mGI-101 alone once a week) [mice] | number of mice with tumor growth inhibition rate of 80% or more (Renca cells; mGI-101 alone once a week) [mice] | number of mice with tumor growth inhibition rate of 30% or more (Renca cells; [1]) [mice] | number of mice with tumor growth inhibition rate of 50% or more (Renca cells; [1]) [mice] | number of mice with tumor growth inhibition rate of 80% or more (Renca cells; [1])
1 | low binding ability | high binding ability | GI101: fusion protein: human CD80 fragment, Ig hinge, Fc domain, linker, IL-2 variant (2M) (R38A, F42A); SEQ ID NO: 9 | significant tumor inhibitory effect | significant tumor growth inhibition | – | – | – | – | – | – | – | – | –
2 | – | – | mGI101: fusion protein: mouse CD80, Ig hinge, Fc domain, linker, IL-2 variant (2M) (R38A, F42A); SEQ ID NO: 15 | – | – | 6 | 2 | 1 | 5 | 2 | 1 | 3 | 1 | no mouse
